Test results taken from PubChem BioAssay AID2060607 (Molecular Pharmacology Branch, DTP, NCI, 2025).

Test system: 876862-298-R-J1-PDC complex spheroids, viability % test/control
Test: Anticancer human tumor 876862-298-R-J1-PDC patient-derived endometrial carcinoma cell line growth inhibition [CLK]
Settings: for IC50: curve of first compound; for viability, T/C: stronger effect = lower value
Procedure, shortened: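 Multi-cell-type spheroids combined patient-derived tumor cells with HUVEC endothelial cells and human mesenchymal stem cells. Paired agents were dosed in half-log steps down from about clinical Cmax, or from 10 microM where Cmax was unknown.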

[1] = second compound 0.0316 µM, first compound 0.0316 µM
[2] = second compound 0.0316 µM, first compound 0.1 µM
[3] = second compound 0.1 µM, first compound 0.0316 µM
[4] = second compound 0.1 µM, first compound 0.1 µM
[5] = second compound 0.316 µM, first compound 0.0316 µM
[6] = second compound 0.316 µM, first compound 0.1 µM
[7] = second compound 1 µM, first compound 0.0316 µM
[8] = second compound 1 µM, first compound 0.1 µM
[9] = second compound 3.16 µM, first compound 0.0316 µM
[10] = second compound 3.16 µM, first compound 0.1 µM
[11] = second compound 10 µM, first compound 0.0316 µM
[12] = second compound 10 µM, first compound 0.1 µM
[13] = second compound 0.0316 µM, first compound 0.316 µM
[14] = second compound 0.0316 µM, first compound 1 µM
[15] = second compound 0.0316 µM, first compound 3.16 µM
[16] = second compound 0.0316 µM, first compound 10 µM
[17] = second compound 0.1 µM, first compound 0.316 µM
[18] = second compound 0.1 µM, first compound 1 µM
[19] = second compound 0.1 µM, first compound 3.16 µM
[20] = second compound 0.1 µM, first compound 10 µM
[21] = second compound 0.316 µM, first compound 0.316 µM
[22] = second compound 0.316 µM, first compound 1 µM
[23] = second compound 0.316 µM, first compound 3.16 µM
[24] = second compound 0.316 µM, first compound 10 µM
[25] = second compound 1 µM, first compound 0.316 µM
[26] = second compound 1 µM, first compound 1 µM
[27] = second compound 1 µM, first compound 3.16 µM
[28] = second compound 1 µM, first compound 10 µM
[29] = second compound 3.16 µM, first compound 0.316 µM
[30] = second compound 3.16 µM, first compound 1 µM
[31] = second compound 3.16 µM, first compound 3.16 µM
[32] = second compound 3.16 µM, first compound 10 µM
[33] = second compound 10 µM, first compound 0.316 µM
[34] = second compound 10 µM, first compound 1 µM
[35] = second compound 10 µM, first compound 3.16 µM
[36] = second compound 10 µM, first compound 10 µM
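Also: spheroids exposed to drugs for 7 days before readout.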
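For viability, T/C in this document: 100% = DMSO vehicle control wells.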

## Cn1ncnc1[C@H]1c2n[nH]c(=O)c3cc(F)cc(c23)N[C@@H]1c1ccc(F)cc1 + CNC(=O)c1ccc(Nc2nc(OC3CCCC3)c3c(-c4ccc5nc(C)oc5c4)c[nH]c3n2)c(OC)c1
Second compound 0.0316 µM
  IC50: > 100 nM
Second compound 0.1 µM
  IC50: < 0.316 nM
Second compound 0.316 µM
  IC50: < 0.316 nM
Second compound 1 µM
  IC50: < 0.316 nM
Second compound 3.16 µM
  IC50: < 0.316 nM
Second compound 10 µM
  IC50: < 0.316 nM
Second compound 0.0316 µM, first compound 0.000316 µM
  viability, T/C: 67.3%
Second compound 0.0316 µM, first compound 0.001 µM
  viability, T/C: 84.6%
Second compound 0.0316 µM, first compound 0.00316 µM
  viability, T/C: 73.4%
Second compound 0.0316 µM, first compound 0.01 µM
  viability, T/C: 79.9%
[1]
  viability, T/C: 89.7%
[2]
  viability, T/C: 77.5%
Second compound 0.1 µM, first compound 0.000316 µM
  viability, T/C: 42.2%
Second compound 0.1 µM, first compound 0.001 µM
  viability, T/C: 45.4%
Second compound 0.1 µM, first compound 0.00316 µM
  viability, T/C: 46.7%
Second compound 0.1 µM, first compound 0.01 µM
  viability, T/C: 46.5%
[3]
  viability, T/C: 53%
[4]
  viability, T/C: 45.6%
Second compound 0.316 µM, first compound 0.000316 µM
  viability, T/C: 40.9%
Second compound 0.316 µM, first compound 0.001 µM
  viability, T/C: 44.5%
Second compound 0.316 µM, first compound 0.00316 µM
  viability, T/C: 46%
Second compound 0.316 µM, first compound 0.01 µM
  viability, T/C: 43.3%
[5]
  viability, T/C: 44.1%
[6]
  viability, T/C: 36.7%
Second compound 1 µM, first compound 0.000316 µM
  viability, T/C: 31.3%
Second compound 1 µM, first compound 0.001 µM
  viability, T/C: 32.9%
Second compound 1 µM, first compound 0.00316 µM
  viability, T/C: 30%
Second compound 1 µM, first compound 0.01 µM
  viability, T/C: 28.5%
[7]
  viability, T/C: 26.8%
[8]
  viability, T/C: 27.9%
Second compound 3.16 µM, first compound 0.000316 µM
  viability, T/C: 22.8%
Second compound 3.16 µM, first compound 0.001 µM
  viability, T/C: 23.2%
Second compound 3.16 µM, first compound 0.00316 µM
  viability, T/C: 19.6%
Second compound 3.16 µM, first compound 0.01 µM
  viability, T/C: 21.5%
[9]
  viability, T/C: 21.7%
[10]
  viability, T/C: 18.5%
Second compound 10 µM, first compound 0.000316 µM
  viability, T/C: 21.1%
Second compound 10 µM, first compound 0.001 µM
  viability, T/C: 22.4%
Second compound 10 µM, first compound 0.00316 µM
  viability, T/C: 20%
Second compound 10 µM, first compound 0.01 µM
  viability, T/C: 23.3%
[11]
  viability, T/C: 17.5%
[12]
  viability, T/C: 16.2%

## Nc1ccn(C2OC(CO)C(O)C2(F)F)c(=O)n1 (stereo unspecified) + CNC(=O)c1ccc(Nc2nc(OC3CCCC3)c3c(-c4ccc5nc(C)oc5c4)c[nH]c3n2)c(OC)c1
Second compound 0.0316 µM
  IC50: < 31.6 nM
Second compound 0.1 µM
  IC50: < 31.6 nM
Second compound 0.316 µM
  IC50: < 31.6 nM
Second compound 1 µM
  IC50: < 31.6 nM
Second compound 3.16 µM
  IC50: < 31.6 nM
Second compound 10 µM
  IC50: < 31.6 nM
[1]
  viability, T/C: 15.1%
[2]
  viability, T/C: 7.66%
[13]
  viability, T/C: 9.02%
[14]
  viability, T/C: 6.2%
[15]
  viability, T/C: 7.72%
[16]
  viability, T/C: 9.97%
[3]
  viability, T/C: 16.5%
[4]
  viability, T/C: 9.17%
[17]
  viability, T/C: 9.31%
[18]
  viability, T/C: 7.24%
[19]
  viability, T/C: 7.42%
[20]
  viability, T/C: 10.1%
[5]
  viability, T/C: 17.7%
[6]
  viability, T/C: 7.67%
[21]
  viability, T/C: 7.58%
[22]
  viability, T/C: 5.78%
[23]
  viability, T/C: 7.22%
[24]
  viability, T/C: 6.26%
[7]
  viability, T/C: 14.6%
[8]
  viability, T/C: 8.47%
[25]
  viability, T/C: 6.7%
[26]
  viability, T/C: 6.04%
[27]
  viability, T/C: 6.8%
[28]
  viability, T/C: 5.73%
[9]
  viability, T/C: 10.5%
[10]
  viability, T/C: 5.98%
[29]
  viability, T/C: 5.8%
[30]
  viability, T/C: 6.15%
[31]
  viability, T/C: 4.91%
[32]
  viability, T/C: 5.13%
[11]
  viability, T/C: 8.61%
[12]
  viability, T/C: 5.73%
[33]
  viability, T/C: 5.74%
[34]
  viability, T/C: 5.44%
[35]
  viability, T/C: 6.11%
[36]
  viability, T/C: 3.96%

## O=c1[nH]cc(F)c(=O)[nH]1 + CNC(=O)c1ccc(Nc2nc(OC3CCCC3)c3c(-c4ccc5nc(C)oc5c4)c[nH]c3n2)c(OC)c1
Second compound 0.0316 µM
  IC50: > 10000 nM
Second compound 0.1 µM
  IC50: < 31.6 nM
Second compound 0.316 µM
  IC50: < 31.6 nM
Second compound 1 µM
  IC50: < 31.6 nM
Second compound 3.16 µM
  IC50: < 31.6 nM
Second compound 10 µM
  IC50: < 31.6 nM
[1]
  viability, T/C: 68.7%
[2]
  viability, T/C: 84.1%
[13]
  viability, T/C: 81.4%
[14]
  viability, T/C: 94.6%
[15]
  viability, T/C: 57.9%
[16]
  viability, T/C: 49.6%
[3]
  viability, T/C: 46.7%
[4]
  viability, T/C: 49.5%
[17]
  viability, T/C: 49.2%
[18]
  viability, T/C: 45%
[19]
  viability, T/C: 45.3%
[20]
  viability, T/C: 41.6%
[5]
  viability, T/C: 49.7%
[6]
  viability, T/C: 42%
[21]
  viability, T/C: 41.9%
[22]
  viability, T/C: 40.5%
[23]
  viability, T/C: 40.1%
[24]
  viability, T/C: 38.5%
[7]
  viability, T/C: 31.5%
[8]
  viability, T/C: 32.2%
[25]
  viability, T/C: 32.5%
[26]
  viability, T/C: 31.1%
[27]
  viability, T/C: 24%
[28]
  viability, T/C: 24.7%
[9]
  viability, T/C: 25%
[10]
  viability, T/C: 25.9%
[29]
  viability, T/C: 22.9%
[30]
  viability, T/C: 19.9%
[31]
  viability, T/C: 18%
[32]
  viability, T/C: 14.2%
[11]
  viability, T/C: 20.3%
[12]
  viability, T/C: 21.2%
[33]
  viability, T/C: 20.1%
[34]
  viability, T/C: 21.6%
[35]
  viability, T/C: 17.6%
[36]
  viability, T/C: 13.6%
